Tests used:
[1] = system: L. (L.) infantum promastigotes; assay: In vitro activity on L. (L.) infantum promastigotes, counting viable parasites; assay type: cell-based, Leishmania (Leishmania) infantum; conditions: for IC50: Leishmania infantum, 72 h, 28 °C, read-out: L. (L) infantum promastigotes IC50 ± SD; for L. (L) infantum promastigotes SI: selectivity index CC50/IC50
Experimental: (§1) Epimastigotes of T. cruzi and promastigotes forms of L. […] The inhibition of parasite growth was microscopically determined by counting viable (live) parasites in a haemocytometer using yellow eosin as vital dye; live parasites (uncolored) and dead (orange) were counted. All of the experiments were performed with parasites in their logarithmic phase of growth. […] Negative controls were used without the drug (culture medium alone) in each experiment. […] The data were calculated by linear regression using the software ([…]; GO Business Solution, Guildford, UK). The selectivity index (SI) was calculated dividing CC50/IC50. Each experiment was repeated twice and the values represent the results of one representative experiment. […] The analysis to determine the statistical differences in biological activity was performed using the analysis of variance (ANOVA) and the Bonferroni post-test. We also performed Student's t test for comparison between the two variables, using GraphPad Prism software version 5.03.

[2] = Mammalian cell toxicity, MTT, THP-1 cells; assay type: cell-based; conditions: human, THP-1 cells transformed into adherent macrophages with PMA; 72 h, MTT; read-out: Mammalian cells THP-1 CC50 ± SD
Experimental: (§2) Vero cells and THP-1 cells transformed into adherent macrophages with PMA in 96 microwell plates where they were treated with compounds (0-350 μM) during 72 h at 37 °C, 5% CO2-95% air mixture. The viability of the cells was evaluated by using the tetrazolium-dye (MTT) colorimetric method. After incubation of the cells with the MTT (5mg/mL) reagent for 4 hours, DMSO was added. The samples were read using an ELISA plate reader at a wavelength of 580 nm. The amount of color produced is directly proportional to the number of viable cells. The percentage of cytotoxicity was calculated by the equation: cytotoxicity (%) = (OD control group-OD treatment group)/OD control group × 100 [31]. […] The data were calculated by linear regression using the software ([…]; GO Business Solution, Guildford, UK). The selectivity index (SI) was calculated dividing CC50/IC50. Each experiment was repeated twice and the values represent the results of one representative experiment. […] The analysis to determine the statistical differences in biological activity was performed using the analysis of variance (ANOVA) and the Bonferroni post-test. We also performed Student's t test for comparison between the two variables, using GraphPad Prism software version 5.03.

[3] = Mammalian cell toxicity, MTT, Vero cells; assay type: cell-based; conditions: African green monkey, Vero cells, 72 h, MTT; read-out: Mammalian cells Vero CC50 ± SD
Experimental: as §2

T. cruzi epimastigotes = assay: In vitro activity on T. cruzi epimastigotes, counting viable parasites; assay type: cell-based, Trypanosoma cruzi; conditions: for IC50: Trypanosoma cruzi, 72 h, 28 °C, read-out: T. cruzi epimastigotes IC50 ± SD; for T. cruzi epimastigotes SI: selectivity index CC50/IC50
Experimental: as §1

[4] = system: L. (L.) amazonensis intracellular amastigotes; assay: Intracellular amastigotes of L. (L.) amazonensis in THP-1 macrophages; assay type: cell-based, Leishmania (Leishmania) amazonensis
Experimental: (§3) For the amastigotes assays, adherent Vero cells or THP-1 macrophages (after transformation with 10 ng/mL PMA) were infected with tissue-derived trypomastigotes or stationary phase promastigotes, respectively, at a ratio of 10:1 and maintained in a 5% CO2-95% air mixture at 37 °C. After 24 h, infected cultures with >50% of infected cells were incubated with the compounds (from 3–300 μM) in a three-fold dilution series for 72 h. Drug activity was determined from the % of infected cells in treated and untreated cultures in fixed methanol and Giemsa stained preparations. Parasites’ assays were performed twice and each tested concentration was tested in triplicate.
(§4) Negative controls were used without the drug (culture medium alone) in each experiment.
(§5) The data were calculated by linear regression using the software (Msxlfit; GO Business Solution, Guildford, UK). The selectivity index (SI) was calculated dividing CC50/IC50. Each experiment was repeated twice and the values represent the results of one representative experiment. […] The analysis to determine the statistical differences in biological activity was performed using the analysis of variance (ANOVA) and the Bonferroni post-test. We also performed Student’s t test for comparison between the two variables, using GraphPad Prism software version 5.03. P values <0.05 were considered to be statistically significant.

[5] = system: L.(V.) panamensis intracellular amastigotes; assay: Intracellular amastigotes of L. (V.) panamensis in THP-1 macrophages; assay type: cell-based, Leishmania (Viannia) panamensis
Experimental: as §3, §4, §5

[6] = system: L. (L.) infantum intracellular amastigotes; assay: Intracellular amastigotes of L. (L.) infantum infecting THP-1 macrophages; assay type: cell-based, Leishmania (Leishmania) infantum
Experimental: as §3, §4, §5

[7] = system: T. cruzi intracellular amastigotes; assay: Intracellular amastigotes of T. cruzi in Vero cells; assay type: cell-based, Trypanosoma cruzi
Experimental: as §3, §4, §5

| Compound | IC50 [1] | L. (L) infantum promastigotes SI [1] | CC50 at 72 h [2] | CC50 at 72 h [3] | IC50 (T. cruzi epimastigotes) | T. cruzi epimastigotes SI (T. cruzi epimastigotes) | further results |
| --- | --- | --- | --- | --- | --- | --- | --- |
| O=C1CSC(c2ccccn2)N1CCCCN1C(=O)CSC1c1ccccn1 (stereo not drawn) [6i] | > 250 µM | >1.0 | > 250 µM | > 250 µM | > 250 µM | >1.0 |  |
| O=C1CSC(c2ccccc2)N1CCN1C(=O)CSC1c1ccccc1 (stereo not drawn) [6a] | 136 ± 6.96 µM | >1.91 | > 250 µM | 171 ± 3.77 µM | 237 ± 12.1 µM | 0.72 |  |
| O=C1CSC(c2ccncc2)N1CCCCN1C(=O)CSC1c1ccncc1 (stereo not drawn) [6k] | > 250 µM | >1.0 | > 250 µM | > 250 µM | > 250 µM | >1.0 |  |
| COc1ccc(CNCCNCc2ccc(OC)c(O)c2)cc1O [5d] | 40.2 ± 5.21 µM | >7.48 | > 300 µM | > 300 µM | 0.88 ± 0.06 µM |  |  |
| c1cncc(CNCCCCNCc2cccnc2)c1 [5j] | 44.2 ± 10.5 µM | >8.36 | > 300 µM | > 300 µM | > 250 µM | >1 |  |
| COc1ccc(CNCCCCNCc2ccc(OC)c(O)c2)cc1O [5e] | > 250 µM |  | 248 µM | > 250 µM | 1.22 ± 0.08 µM |  |  |
| O=C1CSC(c2cccnc2)N1CCN1C(=O)CSC1c1cccnc1 (stereo not drawn) [6g] | > 250 µM | >1.0 | > 250 µM | > 250 µM | > 250 µM | >1.0 |  |
| O=C(CCl)NCCCNC(=O)CCl [7b] | 76.4 ± 1.05 µM | 2.07 | 158 ± 4.53 µM | 32.7 ± 6.56 µM | 1.01 ± 0.13 µM | 32.35 |  |
| c1cc(CNCCNCc2ccncc2)ccn1 [5h] | 181 ± 1.89 µM | >2.28 | > 413 µM | 356 ± 37.1 µM | > 250 µM | >0.86 |  |
| c1ccc(CNCCCCNCc2ccccn2)nc1 [5i] | 28.8 ± 5.14 µM | >12.82 | > 300 µM | 132 ± 12.3 µM | > 250 µM | >0.35 |  |
| O=C1CSC(c2cccnc2)N1CCCCN1C(=O)CSC1c1cccnc1 (stereo not drawn) [6j] | > 250 µM | >1.0 | > 250 µM | 75.4 ± 1.8 µM | 235 ± 3.06 µM | 0.32 |  |
| O=C1CSC(c2ccncc2)N1CCN1C(=O)CSC1c1ccncc1 (stereo not drawn) [6h] | > 250 µM | >1.0 | > 250 µM | > 250 µM | > 250 µM | >1.0 |  |
| c1ccc(CNCCCNCc2ccccc2)cc1 [5b] | 1.96 ± 0.07 µM | 86.29 | 169 ± 29.8 µM | 343 ± 29.4 µM | 5.35 ± 0.27 µM | 64.2 |  |
| O=C1CSC(c2ccccc2)N1CCCCN1C(=O)CSC1c1ccccc1 (stereo not drawn) [6c] | > 250 µM | >1.0 | > 250 µM | > 250 µM | > 250 µM | >1.01 |  |
| O=C1CSC(c2ccccn2)N1CCN1C(=O)CSC1c1ccccn1 (stereo not drawn) [6f] | 176 ± 16 µM | >1.46 | > 250 µM | > 250 µM | 161 ± 5.58 µM | >1.60 |  |
| C[C@@H]1[C@H](O)[C@@H](C)/C=C/C=C/C=C/C=C/C=C/C=C/C=C/[C@H](O[C@@H]2O[C@H](C)[C@@H](O)[C@H](N)[C@@H]2O)C[C@@H]2O[C@](O)(C[C@@H](O)C[C@@H](O)[C@H](O)CC[C@@H](O)C[C@@H](O)CC(=O)O[C@H]1C)C[C@H](O)[C@H]2C(=O)O [AmB, Amphotericin B, reference compound] | 0.014 ± 0.001 µM | 948.57 | 13.3 ± 1.72 µM |  |  |  | IC90 ([4]; Leishmania amazonensis, THP-1 macrophages, 72 h): 200 ± 2 nM; IC50 ([4]; Leishmania amazonensis, THP-1 macrophages, 72 h, 58.6% cells infected before treatment): 82 ± 2 nM; L. (L.) amazonensis intracellular amastigotes SI ([4]; selectivity index CC50/IC50): 616; IC90 ([5]; THP-1 macrophages, 72 h): 200 ± 2 nM; IC50 ([5]; THP-1 macrophages, 72 h, 78.3% cells infected before treatment): 32 ± 2 nM; L.(V.) panamensis intracellular amastigotes SI ([5]; selectivity index CC50/IC50): 420; IC90 ([6]; Leishmania infantum, THP-1 macrophages, 72 h): 138 ± 23 nM; IC50 ([6]; Leishmania infantum, THP-1 macrophages, 72 h, 48.58% cells infected before treatment): 45 ± 7 nM; L. (L.) infantum intracellular amastigotes SI ([6]; selectivity index CC50/IC50): 360 |
| CC1CS(=O)(=O)CCN1/N=C/c1ccc([N+](=O)[O-])o1 (stereo not drawn) [Nif, Nifurtimox, reference compound] |  |  |  | 76.5 ± 3.2 µM | 2.71 ± 0.05 µM | 28.23 | IC90 ([7]; Trypanosoma cruzi, Vero cells, 72 h): 10.2 ± 1.6 µM; IC50 ([7]; Trypanosoma cruzi, Vero cells, 72 h, 98.1% cells infected before treatment): 2340 ± 830 nM; T. cruzi intracellular amastigotes SI ([7]; selectivity index CC50/IC50): 55 |

— PMC3617668, “In Vitro Antileishmanial, Trypanocidal, and Mammalian Cell Activities of Diverse N,N′ -Dihetaryl Substituted Diamines and Related Compounds” (Scientia Pharmaceutica, 2012)
